The target of this data set is Cav1.2 (voltage-dependent L-type calcium channel subunit alpha-1C) (Homo sapiens, UniProt Q13936). Briefly: Inhibition of human Cav1.2 expressed in HEK293 cells assessed as reduction in Ca2+ uptake at 100 uM measured as first 2 mins sampled at a frequency of one sample every second and the last 12 min at a frequency of one sample every 5 secs by fluo-3AM-based FLIPR assay. The following applies: HEK293 cells that express human Cav1.2. Type of data set: cell-based.
Cav1.2 (voltage-dependent L-type calcium channel subunit alpha-1C), sequence (Q13936 whole entry): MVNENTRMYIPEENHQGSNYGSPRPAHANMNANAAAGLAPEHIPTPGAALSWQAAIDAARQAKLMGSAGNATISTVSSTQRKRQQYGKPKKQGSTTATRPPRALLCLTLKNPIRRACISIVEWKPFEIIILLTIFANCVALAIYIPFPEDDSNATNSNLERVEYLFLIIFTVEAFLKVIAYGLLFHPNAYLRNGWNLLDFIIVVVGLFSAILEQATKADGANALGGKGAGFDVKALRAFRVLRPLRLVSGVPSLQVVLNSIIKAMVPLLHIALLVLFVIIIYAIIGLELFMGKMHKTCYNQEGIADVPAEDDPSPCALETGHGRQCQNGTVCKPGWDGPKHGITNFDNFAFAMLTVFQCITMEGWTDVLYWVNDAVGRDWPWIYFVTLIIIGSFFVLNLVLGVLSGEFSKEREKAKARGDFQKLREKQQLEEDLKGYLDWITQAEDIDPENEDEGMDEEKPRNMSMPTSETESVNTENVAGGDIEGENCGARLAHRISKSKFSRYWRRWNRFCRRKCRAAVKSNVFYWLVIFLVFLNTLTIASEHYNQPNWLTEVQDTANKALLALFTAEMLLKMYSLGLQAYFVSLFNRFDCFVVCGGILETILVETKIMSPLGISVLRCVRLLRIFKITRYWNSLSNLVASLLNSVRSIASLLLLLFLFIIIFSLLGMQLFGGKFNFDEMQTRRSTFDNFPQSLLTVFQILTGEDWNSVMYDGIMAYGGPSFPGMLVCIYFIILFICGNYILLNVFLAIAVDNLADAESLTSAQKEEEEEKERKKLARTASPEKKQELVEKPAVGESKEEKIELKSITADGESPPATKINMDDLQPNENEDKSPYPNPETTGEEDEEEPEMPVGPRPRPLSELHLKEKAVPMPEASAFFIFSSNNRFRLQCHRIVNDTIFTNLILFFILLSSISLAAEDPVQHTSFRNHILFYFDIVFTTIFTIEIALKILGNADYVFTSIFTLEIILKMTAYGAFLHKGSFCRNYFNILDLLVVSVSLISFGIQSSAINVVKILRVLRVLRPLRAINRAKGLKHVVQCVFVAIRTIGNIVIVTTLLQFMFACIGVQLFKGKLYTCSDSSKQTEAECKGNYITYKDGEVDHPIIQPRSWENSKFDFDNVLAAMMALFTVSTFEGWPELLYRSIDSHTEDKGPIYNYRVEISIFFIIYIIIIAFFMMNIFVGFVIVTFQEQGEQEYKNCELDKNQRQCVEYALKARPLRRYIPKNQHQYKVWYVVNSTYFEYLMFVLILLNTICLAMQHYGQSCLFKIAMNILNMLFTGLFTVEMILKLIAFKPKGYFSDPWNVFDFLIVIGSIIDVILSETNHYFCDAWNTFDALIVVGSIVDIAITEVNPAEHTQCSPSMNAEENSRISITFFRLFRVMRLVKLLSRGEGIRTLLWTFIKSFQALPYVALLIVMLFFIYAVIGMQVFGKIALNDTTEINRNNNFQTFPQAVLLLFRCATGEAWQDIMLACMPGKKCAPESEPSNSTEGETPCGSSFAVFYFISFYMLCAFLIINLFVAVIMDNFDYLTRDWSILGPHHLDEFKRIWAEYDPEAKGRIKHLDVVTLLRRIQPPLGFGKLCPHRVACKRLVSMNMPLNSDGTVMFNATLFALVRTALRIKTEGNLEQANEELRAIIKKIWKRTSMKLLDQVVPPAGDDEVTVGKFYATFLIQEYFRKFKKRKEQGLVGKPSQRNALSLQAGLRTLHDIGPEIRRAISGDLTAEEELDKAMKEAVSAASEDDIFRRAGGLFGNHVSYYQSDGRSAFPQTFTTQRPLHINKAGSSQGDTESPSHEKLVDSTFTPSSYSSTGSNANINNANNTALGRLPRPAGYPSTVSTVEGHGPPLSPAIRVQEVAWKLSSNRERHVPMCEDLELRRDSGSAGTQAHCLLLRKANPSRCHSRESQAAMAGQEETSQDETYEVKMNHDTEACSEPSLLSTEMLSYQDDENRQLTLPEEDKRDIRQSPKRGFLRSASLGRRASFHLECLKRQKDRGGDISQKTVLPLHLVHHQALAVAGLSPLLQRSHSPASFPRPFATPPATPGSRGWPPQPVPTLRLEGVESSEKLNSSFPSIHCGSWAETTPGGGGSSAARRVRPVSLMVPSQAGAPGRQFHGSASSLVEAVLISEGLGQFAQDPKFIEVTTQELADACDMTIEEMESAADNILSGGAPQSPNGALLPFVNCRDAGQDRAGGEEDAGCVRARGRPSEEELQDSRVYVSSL

With `CCOC(=O)C1=C(C)NC(=S)NC1c1cccc(O)c1` (stereo unspecified) [MONASTROL], the inhibition – broadly, the share of the control response that was lost under treatment – at 100 µM is 70%.

The values are drawn from ChEMBL document CHEMBL4138169, “Biological activity of dihydropyrimidinone (DHPM) derivatives: A systematic review” (Eur J Med Chem, 2018).
